Source: US9969741B2, “Pyrazolotriazines as inhibitors of nucleases” (MASARYKOVA UNIVERZITA, priority 2014, dated 2018)

Biological target: T1, EXO1 (Homo sapiens, UniProt Q9UQ84)
T1 construct: made in house; host or cells: Escherichia coli BL21 (RIPL)
T1 sequence (Q9UQ84 1-846): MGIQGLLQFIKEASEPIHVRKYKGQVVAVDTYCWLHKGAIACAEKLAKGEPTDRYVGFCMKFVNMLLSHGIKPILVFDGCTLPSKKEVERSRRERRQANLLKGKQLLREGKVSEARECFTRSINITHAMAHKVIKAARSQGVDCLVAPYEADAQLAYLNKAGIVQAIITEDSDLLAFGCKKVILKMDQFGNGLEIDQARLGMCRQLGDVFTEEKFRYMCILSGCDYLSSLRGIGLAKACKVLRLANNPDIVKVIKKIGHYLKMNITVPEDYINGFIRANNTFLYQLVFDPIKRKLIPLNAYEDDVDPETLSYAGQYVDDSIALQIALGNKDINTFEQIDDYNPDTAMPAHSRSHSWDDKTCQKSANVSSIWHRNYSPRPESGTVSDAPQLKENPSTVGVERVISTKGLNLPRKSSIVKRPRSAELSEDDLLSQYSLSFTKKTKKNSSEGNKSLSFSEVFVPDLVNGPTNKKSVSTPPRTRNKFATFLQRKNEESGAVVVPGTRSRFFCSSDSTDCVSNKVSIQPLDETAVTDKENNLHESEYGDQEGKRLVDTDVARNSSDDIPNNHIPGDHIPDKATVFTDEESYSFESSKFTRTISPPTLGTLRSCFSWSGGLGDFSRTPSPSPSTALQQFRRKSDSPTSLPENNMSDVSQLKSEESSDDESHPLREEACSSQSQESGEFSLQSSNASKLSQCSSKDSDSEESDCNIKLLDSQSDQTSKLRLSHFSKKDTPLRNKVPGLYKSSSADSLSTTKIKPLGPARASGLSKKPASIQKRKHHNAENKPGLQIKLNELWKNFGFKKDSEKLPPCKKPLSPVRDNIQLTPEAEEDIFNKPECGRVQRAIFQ
Assay: Nuclease inhibition assay, EXO1 (3′ OH fluorescent DNA substrate, gel readout)
Type: biochemical
Conditions: 5 nM enzyme, 5 nM 3′ OH substrate, 15 min at 30° C.
Source text: In vitro assays were used for the determination of compound's IC50 values for inhibition of individual nucleases, i.e., MUS81/EME1, FEN1, EXO1, and MRE11. To generate IC50 values, concentration of compound was plotted against relative nuclease activity (in %). The dose-response curves were generated from inhibition data, from 5 point serial dilutions of inhibitory compounds, each in triplicate and fitted to a standard sigmoid curve. IC50 values were derived by standard nonlinear regression analysis.
All tested compounds were diluted in 100% DMSO (dimethylsulfoxide) to prepare working stocks with different concentrations. To keep the DMSO concentration constant in every reaction, always 0.5 μl of the compound stock was added to the reaction buffer. The reaction buffer differs depending on the enzyme tested. Also concentration of the compounds in the reaction depends on the particular enzyme, since the inhibitory effect of the compounds vary between the enzymes. Nevertheless, always doubling dilutions in the range 200-0.8 μM was used. The compound was added as the first component in the reaction buffer, followed by the enzyme addition. […]
For this experiment we prepared short fluorescently labeled oligonucleotide-based DNA substrates with specific structures reflecting the biochemical activities of tested individual nucleases (Table 1). […] For visualization, each substrate was labeled by fluorescent dye (fluorescein), which can be detected in the gel using appropriate imaging system (FLA-9000, Fuji) with filters for particular wavelengths (excitation: 485 nm, emission: 535 nm).
Nuclease assays were performed in reaction buffer specific for particular enzyme: MUS81/EME1 (50 mM Tris pH=7.5, 5 mM MgCl2, 1 mM DTT a 100 μg/ml BSA), MRE11 (30 mM Bis-Tris pH=7.0, 50 μg/ml BSA, 1 mM DTT a 250 μM MnCl2), EXO1 and FEN1 (50 mM Tris pH=7.5, 1 mM MgCl2, 1 mM DTT a 100 μg/ml BSA). […] Fluorescently labeled DNA was detected by FLA-9000 scanner (Fuji) and the result was evaluated using Multi-Gauge V3.2 software (Fuji). […]

Structure (SMILES)	IC50
Nc1c(-c2nc3ccccc3[nH]2)nnc2cc(-c3cccc4ccccc34)nn12 [Preparative Example 5K]	> 50 µM
Nc1c(-c2nc3ccccc3[nH]2)nnc2cc(-c3ccccc3)nn12 [Preparative Example 5C]	> 50 µM
CCc1nn2c(N)c(-c3nc4ccccc4[nH]3)nnc2c1-c1ccc(F)cc1 [Preparative Example 5A]	> 50 µM
